Laboratory results from patent publication US20200030278A1, “PHARMACEUTICAL COMPOSITIONS OF METAP-2 INHIBITORS” (Zafgen, Inc., priority 2017, published 2020).
Read-outs that look alike come from different tables or passages of the source.

How the values were obtained:
[1] = Red blood cell partitioning; type: in vitro ADME; details: Compound A compared with beloranib
[2] = pKa (physicochemical properties)
[3] = Pharmacokinetics after intravenous administration in rats; details: in vivo, Rat, IV Bolus, 1 mg/kg
Method: (§1) Animal experiments were performed in accordance with the Guide for the Care and Use of Laboratory Animals as adopted and promulgated by the U.S. National Institutes of Health or local equivalent and were approved by the Institution's Animal Care and Use Committee or local equivalent. Unless described otherwise, animals (mouse, rat, and dog studies) were maintained under standard conditions (12-hour light/dark cycle and approximately 21±4° C. and 55±15% relative humidity), and food (Rodent pellet chow [Research Diets, Brunswick N.J., or similar] or canine pellet [Certified Dog Diet 2021C, Harlan Teklad Diets, Madison, Wis.] or canned [i.e., Cesar® Mars Petcare, Victoria, Australia]) and water were available ad libitum. Unless described otherwise, drug formulations were administered s.c. daily (efficacy studies) or every 3 days (Q3D; safety studies).

[4] = Toxicology study in the rat, s.c. Q3D for 28 days; type: in vivo, Sprague Dawley rats; details: for NOAEL at 28 days / AUC(0-t) / Cmax: Sprague Dawley; for AUC(0-t) / Cmax: 6 mg/kg, NOAEL 6 mg/kg; for AUC(0-t): read-out: AUC0-t at NOAEL
Method: Male and female Sprague Dawley rats 9-10 weeks of age (Envigo RMS, Inc., Indianapolis, Ind. or Orient Bio Inc., Gyeonggi-do, South Korea) were individually housed at the testing facility. […] Animals were allocated to treatment groups based on body weight, and body weight and food consumption were recorded weekly. […] At necropsy, macroscopic pathologic findings were recorded, sperm motility and morphology were determined, selected organs were weighed, and selected tissues were collected for microscopic examination.

[5] = Pharmacokinetics after intravenous administration in dogs; details: in vivo, Dog, IV Bolus, 1 mg/kg
Method: as §1

[6] = Protein binding in human plasma (dialysis); type: in vitro ADME; details: Human Plasma, read-out: % Bound (converted)
[7] = Pharmacokinetic study in dogs, single s.c. injection (Example 3); details: both, beagle, dog, plasma, sc, 0.6 mg/kg
Method: (§3) Male and female beagle dogs of 9 to 11 months of age for PK characterization were individually housed at the testing facility Approximately 325 g of pelleted food was provided daily. […] Animals were observed twice daily for signs of ill health, morbidity, mortality, injury, and viability, and detailed clinical observations were conducted daily (including urine/fecal examination and hands-on examination). Food was weighed daily, and body weights were recorded at least weekly.
(§4) Samples were collected in tubes containing lithium heparin and processed for plasma by centrifugation (10 minutes at 3000 rpm). Supernatant was removed and stored frozen (−70° C.) until processed (BASi, West Lafayette, Ind.). Plasma drug concentration data were used to calculate PK parameters for individual concentration data using noncompartmental PK methods in Watson™ version 7.3.0.01 (Thermo Fisher Scientific, Inc., Waltham, Mass.).

[8] = logD7.4 (physicochemical properties); details: pH 7.4
[9] = Hepatocyte incubation, metabolic profile, dog; type: in vitro ADME
Solubility (pH 7) = type: physicochemical; details: pH 7, aqueous buffer
[10] = Pharmacokinetics after subcutaneous administration in rabbits; type: in vivo, Rabbit
Description: (§2) Assessment of differences in pharmacokinetics following subcutaneous administration reflect both differences in the pharmacokinetic properties of the compounds and differences in pharmaceutical factors that affect absorption of the formulations from the injection sites.

[11] = Pharmacokinetics after subcutaneous administration in rats; type: in vivo; details: plasma; Rat, SC, 6 mg/kg
Method: as §1, §2

[12] = Hepatocyte incubation, metabolic profile, rat; type: in vitro ADME
[13] = Hepatocyte incubation, metabolic profile, human; type: in vitro ADME
[14] = dog, in vivo, sc
Method: as §3, §4

[15] = Duration of plasma exposure after subcutaneous dosing, summary over species; type: in vivo, rat, dog, rabbit, human
[16] = Protein binding in rat plasma (dialysis); type: in vitro ADME; details: Rat Plasma, read-out: % Bound (converted)
[17] = Pharmacokinetics after subcutaneous administration in humans; type: in vivo, Human
Description: as §2

[18] = Protein binding in dog plasma (dialysis); type: in vitro ADME; details: Dog Plasma, read-out: % Bound (converted)
plasma proteins = assay: Plasma protein binding, summary over species; type: in vitro ADME; details: species not specified
[19] = Protein binding in mouse plasma (dialysis); type: in vitro ADME; details: read-out: % Bound (converted)
[20] = Pharmacokinetics after subcutaneous administration in dogs; type: in vivo; details: plasma; Dog, SC, 1 mg/kg
Method: as §1, §2

[21] = female, rat, in vivo, sc, Day 1, female rats
[22] = female, rat, in vivo, sc, Day 28, female rats
[23] = male, rat, in vivo, sc, Day 28, male rats

CO[C@@H]1[C@H](OC(=O)N2CC(CCN3CCOCC3)C2)CC[C@]2(CO2)[C@H]1[C@@]1(C)O[C@@H]1CC=C(C)C [Compound A]
red blood cell partitioning [1]: similar | pKa [2]: 7.17 | clearance ([3]; kel and dependent parameters estimated using two time points): 252 mL/min/kg | half-life ([3]; kel and dependent parameters estimated using two time points (1 and 2 hours)): 93 ± 62.4 min | Vd ([3]; kel and dependent parameters estimated using two time points, read-out: Vdss): 2.11 ± 0.1 L/kg | NOAEL at 28 days ([4]; rat, in vivo, sc, female rats, s.c. Q3D, 4 weeks, read-out: NOAEL (F)): 6 mg/kg | NOAEL at 28 days ([4]; rat, in vivo, sc, male rats, s.c. Q3D, 4 weeks, read-out: NOAEL): 6 mg/kg | AUC(0-t) ([4]; both sexes, rat, in vivo, sc, Day 1, male rats): 349 ng·h/mL | Cmax [4, 21]: 278 ng/mL | AUC(0-t) [4, 21]: 262 ng·h/mL | Cmax [4, 22]: 412 ng/mL | AUC(0-t) [4, 22]: 288 ng·h/mL | Cmax ([4]; male, rat, in vivo, sc, Day 1, male rats): 351 ng/mL | Cmax [4, 23]: 426 ng/mL | AUC(0-t) [4, 23]: 409 ng·h/mL | tolerability of the highest dose ([4]; rat, in vivo, sc, 25 mg/kg): well tolerated | Mortality/early euthanasia ([4]; rats, s.c. Q3D, 4 weeks): no mortality and None | clearance [5]: 45.3 mL/min/kg | half-life [5]: 39.7 ± 6.06 min | Vd ([5]; read-out: Vdss): 1.48 ± 0.17 L/kg | fraction unbound at 4 h, 5 nM ([6]; intended 5 nM, actual 1.49 nM at end of 4-hour dialysis): 0.664 | fraction unbound at 4 h, 10 nM ([6]; intended 10 nM, actual 3.14 nM): 0.681 | fraction unbound at 4 h, 50 nM ([6]; intended 50 nM, actual 15.5 nM): 0.688 | fraction unbound at 4 h, 100 nM ([6]; intended 100 nM, actual 32.7 nM): 0.694 | fraction unbound at 4 h, 500 nM ([6]; intended 500 nM, actual 165 nM): 0.704 | fraction unbound at 4 h, 1000 nM ([6]; intended 1000 nM, actual 338 nM): 0.748 | half-life [7]: 24 min | logD7.4 [8]: 2.28 | metabolic profile / predominant pathway in hepatocytes [9]: oxidative (CYP-mediated) metabolism being predominant | solubility (Solubility (pH 7)): > 100 mg/mL | AUC(0-t) ([10]; plasma, Rabbit, SC, 1 mg/kg): 207 ± 45 ng·h/mL | Cmax ([10]; plasma, Rabbit, SC, 1 mg/kg): 173 ± 34 ng/mL | Tmax ([10]; plasma, Rabbit, SC, 1 mg/kg): 19.8 ± 8.4 min | half-life ([10]; plasma, Rabbit, SC, 1 mg/kg): 36.9 ± 10.1 min | time after dosing at which plasma concentrations were below the lower limit of quantification ([10]; rabbit, subcutaneous, last sampling time 8 hours): ≤ 4 h | AUC(0-t) [11]: 391 ± 54 ng·h/mL | Cmax [11]: 323 ± 26 ng/mL | Tmax [11]: 17.5 ± 5.04 min | metabolic profile / predominant pathway in hepatocytes [12]: higher amount of GSH-metabolism than for dog and human hepatocytes | metabolic profile / predominant pathway in hepatocytes [13]: oxidative (CYP-mediated) metabolism being predominant | plasma concentration after the 4-hour timepoint [14]: undetectable | time for concentrations in plasma to return to baseline ([15]; all species): ≤ 8 h | interval between doses with plasma concentrations at background / minimal exposure ([15]; dosing once every 3 days in animals and twice a week in humans): approximately 54 hours | fraction unbound at 4 h, 5 nM ([16]; intended 5 nM, actual 3.64 nM at end of 4-hour dialysis): 0.323 | fraction unbound at 4 h, 10 nM ([16]; intended 10 nM, actual 7.60 nM): 0.29 | fraction unbound at 4 h, 50 nM ([16]; intended 50 nM, actual 39.7 nM): 0.426 | fraction unbound at 4 h, 100 nM ([16]; intended 100 nM, actual 76.0 nM): 0.466 | fraction unbound at 4 h, 500 nM ([16]; intended 500 nM, actual 370 nM): 0.451 | fraction unbound at 4 h, 1000 nM ([16]; intended 1000 nM, actual 595 nM): 0.566 | Cmax ([17]; Human, SC, 2.4 mg): 13.5 ± 2.7 ng/mL | Tmax ([17]; Human, SC, 2.4 mg): 15 ± 0 min | kel ([17]; Human, SC, 2.4 mg): 1.09 ± 0.34 h⁻¹ | Vdss ([17]; Human, SC, 2.4 mg, estimated from subcutaneous dosing): 3.78 ± 1.54 L/kg | plasma concentration at 8 hours after dosing ([17]; humans, 2.4 mg subcutaneous dose): not quantifiable | AUC(0-inf) ([17]; plasma, Human, SC, 2.4 mg): 8.05 ± 1.42 ng·h/mL | half-life ([17]; plasma, Human, SC, 2.4 mg): 40.9 ± 11.9 min | fraction unbound at 4 h, 5 nM ([18]; intended 5 nM, actual 3.17 nM at end of 4-hour dialysis): 0.311 | fraction unbound at 4 h, 10 nM ([18]; intended 10 nM, actual 6.05 nM): 0.406 | fraction unbound at 4 h, 50 nM ([18]; intended 50 nM, actual 32.0 nM): 0.326 | fraction unbound at 4 h, 100 nM ([18]; intended 100 nM, actual 59.1 nM): 0.403 | fraction unbound at 4 h, 500 nM ([18]; intended 500 nM, actual 320 nM): 0.457 | fraction unbound at 4 h, 1000 nM ([18]; intended 1000 nM, actual 527 nM): 0.469 | fraction bound to plasma proteins (plasma proteins): 0.3 to 0.7 | fraction unbound at 4 h, 5 nM ([19]; intended 5 nM, actual 5.20 nM at end of 4-hour dialysis): 0.298 | fraction unbound at 4 h, 10 nM ([19]; intended 10 nM, actual 11.1 nM): 0.293 | fraction unbound at 4 h, 50 nM ([19]; intended 50 nM, actual 56.4 nM): 0.302 | fraction unbound at 4 h, 100 nM ([19]; intended 100 nM, actual 112 nM): 0.333 | fraction unbound at 4 h, 500 nM ([19]; intended 500 nM, actual 496 nM): 0.377 | fraction unbound at 4 h, 1000 nM ([19]; intended 1000 nM, actual 868 nM): 0.46 | AUC(0-t) [20]: 348 ± 42 ng·h/mL | Cmax [20]: 122 ± 29 ng/mL | Tmax [20]: 55 ± 10 min | half-life [20]: 62.4 ± 18 min
